Publication PMC4739419, “Mutations in the nucleotide binding and hydrolysis domains of Helicobacter pylori MutS2 lead to altered biochemical activities and inactivation of its in vivo function” (BMC Microbiology, 2016)
Changes are numbered by the printed parent chain.

Tests used:
[1] = biological target: T1, HpMutS2-E413A (Helicobacter pylori, UniProt O25338, E413A); experiment: Tryptophan fluorescence-quenching nucleotide binding assay; conditions: no divalent metal ions, protein 1 μM, 25 °C; read-out: Kd (dissociation constant)
T1 construct: (A) HpMutS2-E413A (1-762): Mol. wt; (kDa): 87.7; His6 (C); made in house; host or cells: E. coli Rosetta (DE3) pLysS
T1 sequence (O25338 1-762 E413A): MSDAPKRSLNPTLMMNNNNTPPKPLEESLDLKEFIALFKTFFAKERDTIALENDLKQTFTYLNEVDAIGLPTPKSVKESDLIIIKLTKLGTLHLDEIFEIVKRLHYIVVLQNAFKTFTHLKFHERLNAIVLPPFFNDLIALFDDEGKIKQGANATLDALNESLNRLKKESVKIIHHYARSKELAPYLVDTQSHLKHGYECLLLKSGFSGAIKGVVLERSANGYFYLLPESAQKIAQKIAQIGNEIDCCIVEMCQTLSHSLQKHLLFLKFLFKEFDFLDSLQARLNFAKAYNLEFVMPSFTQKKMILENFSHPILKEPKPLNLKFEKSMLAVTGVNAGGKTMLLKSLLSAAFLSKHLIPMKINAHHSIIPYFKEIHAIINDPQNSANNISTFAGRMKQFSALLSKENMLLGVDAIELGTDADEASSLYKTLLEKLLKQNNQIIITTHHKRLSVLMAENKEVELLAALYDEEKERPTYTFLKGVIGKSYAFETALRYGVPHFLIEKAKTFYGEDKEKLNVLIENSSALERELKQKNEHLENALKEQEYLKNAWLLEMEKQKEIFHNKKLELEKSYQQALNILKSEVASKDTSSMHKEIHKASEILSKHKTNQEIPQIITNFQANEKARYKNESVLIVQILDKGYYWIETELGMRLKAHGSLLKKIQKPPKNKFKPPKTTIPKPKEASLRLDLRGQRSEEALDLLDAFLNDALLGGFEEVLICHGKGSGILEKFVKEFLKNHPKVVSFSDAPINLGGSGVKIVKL
Procedure: (§1) Next, the ATP hydrolysing abilities of HpMutS2-G338R and HpMutS2-E413A were tested and compared to that of wild-type HpMutS2. […] Therefore, to determine the nucleotide binding efficiencies of HpMutS2, HpMutS2-G338R, and HpMutS2-E413A, intrinsic fluorescence properties of these proteins were exploited. HpMutS2 has two tryptophan residues at positions 551 and 644. A fluorescence-quenching assay was used to determine the ATP and ADP binding affinities of HpMutS2 and its mutants. Quenching of the Trp fluorescence was recorded upon titration with ATP and ADP in absence of any divalent metal ions. Saturation isotherms generated from the changes in the fluorescence emission spectra of HpMutS2, HpMutS2-G338R, and HpMutS2-E413A were used to calculate the dissociation constants for ATP and ADP (Figs. 2a, b and c respectively).
(§2) Fig. 2 Nucleotide binding affinities of a HpMutS2 b HpMutS2-G338R and c HpMutS2-E413A. Tryptophan fluorescence assays described in the Methods section were used to determine the nucleotide binding affinities of proteins.
(§3) Fluorescence spectroscopy analysis of HpMutS2 was carried out based on the intrinsic fluorescent signal of tryptophan. The proteins were dialyzed in buffer B (50 mM Tris pH 8.0 and 100 mM NaCl) for 4–6 h with at least two changes of the buffer. Fluorescence intensities were measured on a Shimadzu, RF 5000 spectrofluorimeter using a 1-cm stirred quartz cuvette at 25 °C. The emission spectra were recorded over a wavelength of 300–400 nm with an excitation wavelength of 280 nm. To measure the dissociation constants for ATP and ADP, small aliquots of cofactor were added to proteins (1 μM), and spectra were recorded. Each spectra recorded was an average of three scans. The maximum fluorescence intensities observed at around 340 nm were selected for calculating the difference in intrinsic fluorescence of protein alone and in the presence of ligand. Control titrations were conducted and all the fluorescence emission spectra were corrected by subtracting control spectra. The dissociation constants were calculated graphically using a plot of ΔF/ΔFmax versus ligand concentration. ΔF is the magnitude of the difference between the observed fluorescence intensity at a given concentration of ligand and the fluorescence intensity in the absence of ligand and ΔFmax is the difference at saturating concentration of ligand.

[2] = biological target: T2, HpMutS2-G338R (Helicobacter pylori, UniProt O25338, G338R); experiment: as above; conditions: no divalent metal ions, protein 1 μM, 25 °C; read-out: Kd (dissociation constant)
T2 construct: (A) HpMutS2-G338R (1-762): Mol. wt; (kDa): 87.9; His6 (C); made in house; host or cells: E. coli Rosetta (DE3) pLysS
T2 sequence (O25338 1-762 G338R): T1 sequence (O25338 1-762 E413A) with G338R, A413E
Procedure: as §1, §2, §3

[3] = biological target: T3, HpMutS2 (Helicobacter pylori, UniProt O25338); experiment: as above; conditions: for Kd: no divalent metal ions, protein 1 μM, 25 °C, read-out: Kd (dissociation constant)
T3 construct: (A) HpMutS2 (1-762): Mol. wt; (kDa): 87.8; His6 (C); made in house; host or cells: E. coli Rosetta (DE3) pLysS
Procedure: as §1, §2, §3

[4] = biological target: T4, ssDNA-HpMutS2 complex (Helicobacter pylori, UniProt O25338); experiment: Chase experiment on preformed nucleoprotein complex; format: binding; conditions: highest concentration of ATP used (0.25–5 mM)
T4 construct: (A) HpMutS2 (1-762): Mol. wt; (kDa): 87.8; His6 (C); made in house; host or cells: E. coli Rosetta (DE3) pLysS
T4 sequence (O25338 1-762): T1 sequence (O25338 1-762 E413A) with A413E

[5] = biological target: HpMutS2-E413A (Helicobacter pylori 26695, UniProt O25338 1-762, E413A); experiment: EMSA; no nucleotide; no plateau, value not accurate; EMSA: 0.16 nM DNA, buffer A (50 mM Tris pH 8.0, 50 mM NaCl, 1 mM DTT per Fig. S3 legend) with 0.1 ug/ul BSA, NaCl 110 mM, no divalent metal stated, 30 min on ice, 8% native PAGE at 4 C; nucleotides 1 mM; Hill-slope fit; conditions: protein: recombinant; tags: C-terminal His6; chain copies: 4; label: 5'-32P
[6] = biological target: T5, HpMutS2-G338R (Helicobacter pylori 26695, UniProt O25338 1-762, G338R); experiment: EMSA; no nucleotide; EMSA: 0.16 nM DNA, buffer A (50 mM Tris pH 8.0, 50 mM NaCl, 1 mM DTT per Fig. S3 legend) with 0.1 ug/ul BSA, NaCl 110 mM, no divalent metal stated, 30 min on ice, 8% native PAGE at 4 C; nucleotides 1 mM; Hill-slope fit; conditions: protein: recombinant; tags: C-terminal His6; chain copies: 4; label: 5'-32P
[7] = biological target: T6, HpMutS2 (Helicobacter pylori 26695, UniProt O25338 1-762); experiment: as above; conditions: protein: recombinant; tags: C-terminal His6; chain copies: 4; label: 5'-32P
T6 sequence: T1 sequence (O25338 1-762 E413A) with A413E

[8] = biological target: T6, HpMutS2; experiment: EMSA; 1 mM ATPgS; EMSA: 0.16 nM DNA, buffer A (50 mM Tris pH 8.0, 50 mM NaCl, 1 mM DTT per Fig. S3 legend) with 0.1 ug/ul BSA, NaCl 110 mM, no divalent metal stated, 30 min on ice, 8% native PAGE at 4 C; nucleotides 1 mM; Hill-slope fit; conditions: protein: recombinant; tags: C-terminal His6; chain copies: 4; label: 5'-32P
[9] = biological target: T5, HpMutS2-G338R; experiment: EMSA; 1 mM ATP; EMSA: 0.16 nM DNA, buffer A (50 mM Tris pH 8.0, 50 mM NaCl, 1 mM DTT per Fig. S3 legend) with 0.1 ug/ul BSA, NaCl 110 mM, no divalent metal stated, 30 min on ice, 8% native PAGE at 4 C; nucleotides 1 mM; Hill-slope fit; conditions: protein: recombinant; tags: C-terminal His6; chain copies: 4; label: 5'-32P
[10] = biological target: T5, HpMutS2-G338R; experiment: EMSA; 1 mM ADP; EMSA: 0.16 nM DNA, buffer A (50 mM Tris pH 8.0, 50 mM NaCl, 1 mM DTT per Fig. S3 legend) with 0.1 ug/ul BSA, NaCl 110 mM, no divalent metal stated, 30 min on ice, 8% native PAGE at 4 C; nucleotides 1 mM; Hill-slope fit; conditions: protein: recombinant; tags: C-terminal His6; chain copies: 4; label: 5'-32P
[11] = biological target: T6, HpMutS2; experiment: as above; conditions: protein: recombinant; tags: C-terminal His6; chain copies: 4; label: 5'-32P

## Nc1ncnc2c1ncn2[C@@H]1O[C@H](COP(=O)(O)OP(=O)(O)O)[C@@H](O)[C@H]1O [ADP]
[1]
  Kd: 239000 ± 82900 nM
[2]
  Kd: 318000 ± 68500 nM
[3]
  Kd: 149000 ± 31800 nM

## Nc1ncnc2c1ncn2[C@@H]1O[C@H](COP(=O)(O)OP(=O)(O)OP(=O)(O)O)[C@@H](O)[C@H]1O [ATP]
[4]
  dissociation of ssDNA from preformed complex: ~ 20%
[1]
  Kd: 220000 ± 54200 nM
[2]
  Kd: 409000 ± 70400 nM
[3]
  Kd: 167000 ± 24300 nM
[3]; wild-type HpMutS2
  Kd value, fold less than Km value: ~ 2.4 fold

B1: ssDNA 63-mer (ODN4) (ssDNA)
DNA: ATCGATAGTCGGATCCTCCAGACAGCTCCATGTAGCAAGGCACTGGTAGAATTCGGCAGCGTC
[5]
  Kd: ~73.8 nM
[6]
  Kd: 32.4 ± 3.32 nM
[7]
  Kd: 21.5 ± 2.28 nM
[8]
  Kd: 11.4 ± 0.19 nM
[9]
  Kd: 30.7 ± 3.43 nM
[10]
  Kd: 23.9 ± 2.91 nM
[11]
  Kd: 17.3 ± 2.89 nM
